# No end group written: not given here.
# Key:
# L47 E. coli = format: cell-based, Escherichia coli; settings: broth microdilution assay [27]
# Experimental: (§1) Broth and mycelium screening extracts from the F.I.I.R.V. collection of Actinoallomurus strains isolated according as above were screened in liquid microplate assays for their antimicrobial activity on S. aureus 209 ATCC 6538P (L100) and to its L-form cells (L3751), as described in detail in [7]. In brief, S. aureus 209 ATCC 6538P (L100) and its L-form cells (L3751) were maintained at −80°C in Nutrient Broth (Difco) to which 20% (v/v) glycerol was added. EBH/S supplemented with 5% (v/v) horse serum was used as medium. For the wild-type inoculum, 10 μL of extracts previously dissolved in DMSO : H2O 1 : 9 (v/v) were added to 1 × 10^5 CFU/mL in 90 μL of culture broth. For L-form cells, aliquots of liquid cultures grown overnight in EBHI/S to O.D.620 nm = 0.2 were used as inoculum. Incubation time was 24 h at 35°C in air, and then growth inhibition was measured at O.D.620 nm. Reference actagardine, planosporicin, microbisporicin, mersacidin, and nisin standards were used and MIC levels were determined by broth microdilution assay as recommended by the National Committee for Clinical Laboratory Standards. To identify β-lactam producers, antimicrobial activity versus S. aureus 209 ATCC 6538P (L100) was measured in a liquid microplate assay after adding the following cocktail of β-lactamases: Penicillase Type I from Bacillus cereus (Sigma P0389), 0.001 U/mL; Penicillase Type II from Bacillus cereus (Sigma P6018), 0.002 U/mL; Penicillase type III from Enterobacter cloacae (Sigma P4399), 0.0025 U/mL; and Penicillase type IV from Enterobacter cloacae (Sigma P4524), 0.5 U/mL. To identify glycopeptide producers, antimicrobial activity versus S. aureus 209 ATCC 6538P (L100) was measured in a liquid microplate assay after adding 2 mg/mL of Ac-Lys-D-alanyl-D-alanine (Chem-Impex International Inc., IL).
# (§2) Antimicrobial activity was determined by broth microdilution assay according to standard guidelines. […]
# L1400 S. aureus MRSA = test: MIC by broth microdilution, MRSA; format: cell-based, Staphylococcus aureus; settings: broth microdilution assay [27]; MRSA clinical isolate
# Experimental: as §1
# (§3) Antimicrobial activity was determined by broth microdilution assay according to standard guidelines. The growth media utilized to determine the MIC were cation-adjusted Difco Mueller Hinton Broth (MHB) for Staphylococci, Enterococci, and E. coli, Todd Hewitt Broth (THB) for Streptococci, and RPMI-1640 medium (RPMI) for C. albicans. Typically, a twofold serial dilution of the test compound was performed in a sterile 96-well microplate inoculated with 10^4 CFU/mL of the test strain in the appropriate medium. The microplate was then incubated for 18–24 h at 35°C.
# L100 S. aureus ATCC6538P = test: MIC by broth microdilution, S. aureus; format: cell-based, Staphylococcus aureus; settings: broth microdilution assay [27]
# Experimental: as §1, §3
# L3751 S. aureus L-form = test: MIC by broth microdilution, S. aureus L-form; format: cell-based, Staphylococcus aureus; settings: broth microdilution assay [27]; L-form cells
# Experimental: Staphylococcus aureus 209 ATCC 6538P (L100) were purchased from the American Type Culture Collection (ATCC; Manassas VA). L-form cells (L3751) were prepared from L100 by exposure to 100 U of penicillin in Enterococcal Brain Heart Infusion/S (EBH/S) supplemented with 5% NaCl, 5% sucrose, and 10% horse serum as previously described. L-forms were then cultured on similarly supplemented brain heart infusion agar containing no antibiotic. S. aureus Smith ATCC19636 (L819), Streptococcus pyogenes C203 ATCC12384 (L49), and other clinical isolates (S. aureus L1400, Enterococcus faecalis L559, Enterococcus faecalis Van A L560, Escherichia coli SKF12140 L47, and Candida albicans SKF2270 L145) were maintained in the Fondazione Istituto Insubrico Ricerca per la Vita (F.I.I.R.V.) culture collection (L collection) at Gerenzano, Italy.
# as §1, §2
# L145 C. albicans = format: cell-based, Candida albicans; settings: broth microdilution assay [27]
# Experimental: as §1, §2
# L49 S. pyogenes = test: MIC by broth microdilution, S. pyogenes; format: cell-based, Streptococcus pyogenes; settings: broth microdilution assay [27]
# Experimental: as §1, §2
# S. aureus = test: Bioautography of HPLC fractions, S. aureus; format: cell-based, Staphylococcus aureus; settings: 1 mL HPLC fractions dried, resuspended in 100 μL 10% DMSO, 10 μL tested
# Experimental: (§4) For bioautography, fractions (1 mL, eluting at 1 mL/min) from the HPLC column were collected, dried, and resuspended in 100 μL aqueous solution at 10% (v/v) DMSO. 10 μL were tested for antimicrobial activity. UV and mass spectra of molecules present in the active fractions were compared with those collected in the ABL database, which contains data on approximately 30,000 microbial metabolites collected from literature and patents since 1950 [20, 28], and in the commercially available Antibase (http://wwwuser.gwdg.de/~hlaatsc/antibase.htm).
# S. aureus L-form L3751 = test: Bioautography of HPLC fractions, S. aureus L-form; format: cell-based, Staphylococcus aureus; settings: 1 mL HPLC fractions dried, resuspended in 100 μL 10% DMSO, 10 μL tested
# Experimental: as §4
substance,measurement,setting,value
Actagardine,MIC,L47 E. coli,>128 mg/L
same,MIC,L1400 S. aureus MRSA,16 mg/L
same,MIC,L100 S. aureus ATCC6538P,32 mg/L
same,MIC,L3751 S. aureus L-form,>128 mg/L
same,MIC,L145 C. albicans,>128 mg/L
same,MIC,L49 S. pyogenes,2 mg/L
"Mersacidin (CTFTLPGGGGVCTLTSECIC; also: lantibiotic mersacidin, thioether rings not placed; UniProt P43683 49-68, looked up) [lantibiotic standard]",MIC,L1400 S. aureus MRSA,8 mg/L
same,MIC,L100 S. aureus ATCC6538P,4 mg/L
same,MIC,L3751 S. aureus L-form,64 mg/L
Microbisporicin,MIC,L47 E. coli,>128 mg/L
same,MIC,L1400 S. aureus MRSA,≤0.13 mg/L
same,MIC,L100 S. aureus ATCC6538P,≤0.13 mg/L
same,MIC,L3751 S. aureus L-form,>128 mg/L
same,MIC,L145 C. albicans,>128 mg/L
same,MIC,L49 S. pyogenes,<1 mg/L
Microbisporicin A2,Growth inhibition by HPLC fraction (bioautography),S. aureus,inhibits the microbial growth
same,Growth inhibition by HPLC fraction (bioautography),S. aureus L-form L3751,but not its L-form
Planosporicin,MIC,L47 E. coli,>128 mg/L
same,MIC,L1400 S. aureus MRSA,16 mg/L
same,MIC,L100 S. aureus ATCC6538P,2 mg/L
same,MIC,L3751 S. aureus L-form,>128 mg/L
same,MIC,L145 C. albicans,>128 mg/L
same,MIC,L49 S. pyogenes,<1 mg/L

# Source: publication PMC4539421, “A Novel Microbisporicin Producer Identified by Early Dereplication during Lantibiotic Screening” (BioMed Research International, 2015)
